Molecules are shown by their SMILES. Like-named read-outs stand apart in the source and are kept apart here.

The target of one assay is T1, TPM3-TRKA fusion protein (Homo sapiens, UniProt P04629).
T1 construct: The resulted chimeric proteins always retain the kinase domain of TRK proteins; TPM3 (fusion partner, N-terminal part of tropomyosin alpha-3, P06753); endogenous in cells; host or cells: KM12 colon cancer cells; the other entry of the earlier key: TPM3 (P06753, Tropomyosin alpha-3 chain)
Put plainly: TPM3-TRKA fusion protein levels in KM12 cells (Western blot). It counts as cell-based. As to conditions: read-out: Degradation (at 10 nM). The method in brief: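 KM12 colon cancer cells were treated with DMSO or compounds at 0.1–100 nM, 0.4–30 nM or other stated concentrations for 4, 8–16 or 16 h. RIPA lysates were BCA-normalized and resolved by SDS-PAGE. TPM3-TRKA was detected by chemiluminescent Western blot, with bands quantified by densitometry.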

A further assay concerns KM12 cells. The assay is described as follows: KM12 cell viability (CellTiter-Glo). The class given is cell-based. Particulars: Homo sapiens, 72 h; KM12 cell viability, CellTiter-Glo, three days treatment; read-out: IC50. The method in brief: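 KM12 cells seeded at 5000 per well in RPMI 1640 + 10% FBS and exposed 3 days to serial dilutions (11-point 3-fold, 8-point 3-fold from 1000 nM, or 12-point 2-fold). Viability by CellTiter-Glo; IC50 from least-squares nonlinear regression.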

Setting [1] is: 16 h, TPM3-TRKA degradation in KM12 cells at 10 nM compound, category of percentage degradation.

T1 sequence (P04629 with tags, fused parts or gaps): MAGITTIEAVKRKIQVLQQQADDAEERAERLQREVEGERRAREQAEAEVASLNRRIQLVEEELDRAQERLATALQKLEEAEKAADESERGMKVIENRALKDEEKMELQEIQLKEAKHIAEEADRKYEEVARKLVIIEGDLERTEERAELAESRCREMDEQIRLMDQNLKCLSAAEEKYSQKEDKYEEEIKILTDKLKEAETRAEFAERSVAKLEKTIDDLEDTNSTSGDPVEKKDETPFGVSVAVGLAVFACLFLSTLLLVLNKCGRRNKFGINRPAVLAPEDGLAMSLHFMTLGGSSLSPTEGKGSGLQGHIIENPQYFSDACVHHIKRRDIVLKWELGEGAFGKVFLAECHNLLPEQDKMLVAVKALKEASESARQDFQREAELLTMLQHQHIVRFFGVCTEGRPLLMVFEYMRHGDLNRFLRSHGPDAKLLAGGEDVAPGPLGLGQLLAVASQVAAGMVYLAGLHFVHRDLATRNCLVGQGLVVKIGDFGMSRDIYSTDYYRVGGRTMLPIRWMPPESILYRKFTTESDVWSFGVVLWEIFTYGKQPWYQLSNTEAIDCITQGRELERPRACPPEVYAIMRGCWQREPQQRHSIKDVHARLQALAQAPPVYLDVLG

On to `O=C1CCC(N2C(=O)c3ccc(CN4CCC(N5CCN(c6ccc(C(=O)Nc7n[nH]c8ccc(Cc9cc(F)cc(F)c9)cc78)c(NC7CCOCC7)c6)CC5)C4)cc3C2=O)C(=O)N1` (stereo not drawn) [TR-285, N-(5-(3,5-difluorobenzyl)-1H-indazol-3-yl)-4-(4-(1-((2-(2,6-dioxopiperidin-3-yl)-1,3-dioxoisoindolin-5-yl)methyl)pyrrolidin-3-yl)piperazin-1-yl)-2-((tetrahydro-2H-pyran-4-yl)amino)benzamide], for which, at TPM3-TRKA fusion protein (setting [1]), the percent degradation of TPM3-TRKA protein at 0.01 µM was above 80%. Besides, the IC50 in the assay on KM12 cells came to 9.7 nM.

With `O=C1CCC(N2C(=O)c3ccc(N4CCOC(CN5CCN(c6cccc(-c7cnc8ccc(N9CCC[C@@H]9c9cccc(F)c9)nn78)n6)CC5)C4)cc3C2=O)C(=O)N1` (stereo partly drawn) [TR-286, 2-(2,6-dioxopiperidin-3-yl)-5-(2-((4-(6-(6-((R)-2-(3-fluorophenyl)pyrrolidin-1-yl)imidazo[1,2-b]pyridazin-3-yl)pyridin-2-yl)piperazin-1-yl)methyl)morpholino) isoindoline-1,3-dione], at TPM3-TRKA fusion protein (setting [1]), the percent degradation of TPM3-TRKA protein at 0.01 µM is above 80%. Besides, the IC50 in the assay with KM12 cells is 7.8 nM.

Turning to `O=C1CCC(N2C(=O)c3ccc(N4CC(OC5CCN(c6cccc(-c7cnc8ccc(N9CCC[C@@H]9c9cccc(F)c9)nn78)n6)CC5)C4)cc3C2=O)C(=O)N1` (stereo partly drawn) [TR-287, 2-(2,6-dioxopiperidin-3-yl)-5-(3-((1-(6-(6-((R)-2˜ (3-fluorophenyl)pyrrolidin-1-yl)imidazo[1,2-b]pyridazin-3-yl)pyridin-2-yl)piperidin-4-yl)oxy)azetidin-1-yl)isoindoline-1,3-dione], the percent degradation of TPM3-TRKA protein at 0.01 µM on TPM3-TRKA fusion protein (setting [1]) was above 80%. The IC50 with KM12 cells was found to be 19.3 nM.

Consider `O=C1CCC(N2C(=O)c3ccc(N4CC(NC5CCN(c6cccc(-c7cnc8ccc(N9CCC[C@@H]9c9cccc(F)c9)nn78)n6)CC5)C4)cc3C2=O)C(=O)N1` (stereo partly drawn) [TR-288, 2-(2,6-dioxopiperidin-3-yl)-5-(3-((1-(6-(6-((R)-2-(3-fluorophenyl)pyrrolidin-1-yl)imidazo[1,2-b]pyridazin-3-yl)pyridin-2-yl)piperidin-4-yl)amino)azetidin-1-yl)isoindoline-1,3-dione], for which, on TPM3-TRKA fusion protein (KM12, 16 h), the percent degradation of TPM3-TRKA protein at 0.01 µM was above 80%. For the same compound, in the assay on KM12 cells, the IC50 is 9.2 nM.

Regarding `O=C1CCC(N2C(=O)c3ccc(NC4CCC(N5CCN(c6ccc(C(=O)Nc7n[nH]c8ccc(Cc9cc(F)cc(F)c9)cc78)c(NC7CCOCC7)c6)CC5)CC4)cc3C2=O)C(=O)N1` (stereo not drawn) [TR-289, N-(5-(3,5-Difluorobenzyl)-1H-indazol-3-yl)-4-(4-(4-((2-(2,6-dioxopiperidin-3-yl)-1,3-dioxoisoindolin-5-yl)amino)cyclohexyl)piperazin-1-yl)-2-((tetrahydro-2H-pyran-4-yl)amino)benzamide], the percent degradation of TPM3-TRKA protein at 0.01 µM on TPM3-TRKA fusion protein (setting [1]) was above 80%. For the same compound, the IC50 with KM12 cells came out at 3.8 nM.

With `O=C1CCC(N2C(=O)c3ccc(N4CCC5(CC(N6CCN(c7ccc(C(=O)Nc8n[nH]c9ccc(Cc%10cc(F)cc(F)c%10)cc89)c(NC8CCOCC8)c7)CC6)C5)C4)cc3C2=O)C(=O)N1` (stereo not drawn) [TR-290, N-(5-(3,5-difluorobenzyl)-1H-indazol-3-yl)-4-(4-(6-(2-(2,6-dioxopiperidin-3-yl)-1,3-dioxoisoindolin-5-yl)-6-azaspiro[3.4]octan-2-yl)piperazin-1-yl)-2-((tetrahydro-2H-pyran-4-yl)amino)benzamide], at TPM3-TRKA fusion protein (setting [1]), the percent degradation of TPM3-TRKA protein at 0.01 µM is above 80%. For the same compound, in the assay with KM12 cells, the IC50 amounted to 11.2 nM.

`O=C1CCC(N2C(=O)c3ccc(C4CN(CCN5CCN(c6cccc(-c7cnc8ccc(N9CCC[C@@H]9c9cccc(F)c9)nn78)n6)CC5)C4)cc3C2=O)C(=O)N1` (stereo partly drawn) [TR-292, 2-(2,6-dioxopiperidin-3-yl)-5-(1-(2-(4-(6-(6-((R)-2-(3-fluorophenyl)pyrrolidin-1-yl)imidazo[1,2-b]pyridazin-3-yl)pyridin-2-yl)piperazin-1-yl)ethyl)azetidin-3-yl)isoindoline-1,3-dione]: the percent degradation of TPM3-TRKA protein at 0.01 µM at TPM3-TRKA fusion protein (setting [1]) was above 80%. For the same compound, the IC50 in the assay with KM12 cells turned out to be 8.2 nM.

As to `O=C1CCC(N2C(=O)c3ccc(C4CN(CC5CCN(c6cccc(-c7cnc8ccc(N9CCC[C@@H]9c9cccc(F)c9)nn78)n6)CC5)C4)cc3C2=O)C(=O)N1` (stereo partly drawn) [TR-293, 2-(2,6-dioxopiperidin-3-yl)-5-(1-((1-(6-(6-((R)-2-(3-fluorophenyl)pyrrolidin-1-yl)imidazo[1,2-b]pyridazin-3-yl)pyridin-2-yl)piperidin-4-yl)methyl)azetidin-3-yl)isoindoline-1,3-dione], the percent degradation of TPM3-TRKA protein at 0.01 µM at TPM3-TRKA fusion protein (setting [1]) is above 80%. The half-inhibitory concentration (IC50) in the assay with KM12 cells came out at 9.5 nM.

`O=C1CCC(N2C(=O)c3cccc(CN4CC(CN5CCN(c6cccc(-c7cnc8ccc(N9CCC[C@@H]9c9cccc(F)c9)nn78)n6)CC5)C4)c3C2=O)C(=O)N1` (stereo partly drawn) [TR-294, 2-(2,6-Dioxopiperidin-3-yl)-4-((3-((4-(6-(6-((R)-2-(3-fluorophenyl)pyrrolidin-1-yl)imidazo[1,2-b]pyridazin-3-yl)pyridin-2-yl)piperazin-1-yl)methyl)azetidin-1-yl)methyl)isoindoline-1,3-dione]: on TPM3-TRKA fusion protein (setting [1]), the percent degradation of TPM3-TRKA protein at 0.01 µM is above 80%. For the same compound, the IC50 in the assay with KM12 cells was found to be 12.5 nM.

On to `Cc1nc2cccc(N3CC(CN4CCN(c5cccc(-c6cnc7ccc(N8CCC[C@@H]8c8cccc(F)c8)nn67)n5)CC4)C3)c2c(=O)n1C1CCC(=O)NC1=O` (stereo partly drawn) [TR-295], for which, on TPM3-TRKA fusion protein (setting [1]), the percent degradation of TPM3-TRKA protein at 0.01 µM fell in the range of 50 to 80%. Moreover, the IC50 with KM12 cells was 30 nM.

With `O=C1CCC(n2nnc3cccc(N4CC(CN5CCN(c6cccc(-c7cnc8ccc(N9CCC[C@@H]9c9cccc(F)c9)nn78)n6)CC5)C4)c3c2=O)C(=O)N1` (stereo partly drawn) [TR-296], at TPM3-TRKA fusion protein (setting [1]), the percent degradation of TPM3-TRKA protein at 0.01 µM lay within 50 to 80%. In the assay on KM12 cells, the 50% inhibitory concentration (IC50) worked out at 22 nM.

With `O=C1CCC(n2nnc3cccc(N4CC(CCN5CCN(c6cccc(-c7cnc8ccc(N9CCC[C@@H]9c9cccc(F)c9)nn78)n6)CC5)C4)c3c2=O)C(=O)N1` (stereo partly drawn) [TR-297], at TPM3-TRKA fusion protein (setting [1]), the percent degradation of TPM3-TRKA protein at 0.01 µM was in the range of 50 to 80%. In addition, the IC50 in the assay on KM12 cells was 39 nM.

On to `O=C1CCC(N2Cc3ccc(C#CCN4CCN(c5ccc(C(=O)Nc6n[nH]c7ccc(Cc8cc(F)cc(F)c8)cc67)c(NC6CCOCC6)c5)CC4)cc3C2=O)C(=O)N1` (stereo not drawn) [TR-298, N—(S-(3,5-Difluorobenzyl)-1H-indazol-3-yl)-4-(4-(3-(2-(2,6-dioxopiperidin-3-yl)-3-oxoisoindolin-5-yl)prop-2-yn-1-yl)piperazin-1-yl)-2-((tetrahydro-2/-pyran-4-yl)amino)benzamide], for which the percent degradation of TPM3-TRKA protein at 0.01 µM on TPM3-TRKA fusion protein (setting [1]) is above 80%. In the assay on KM12 cells, the IC50 was determined as 30 nM.

In the case of `O=C1CCC(N2C(=O)c3ccc(NC4CCC(N5CCN(c6ccc(C(=O)Nc7n[nH]c8ccc(Cc9cc(F)cc(F)c9)cc78)c(NC7CCOCC7)c6)CC5)C4)cc3C2=O)C(=O)N1` (stereo not drawn) [TR-299, N-(5-(3,5-Difluorobenzyl)-1H-indazol-3-yl)-4-(4-(3-((2-(2,6-dioxopiperidin-3-yl)-1,3-dioxoisoindolin-S-yl)amino)cyclopentyl)piperazin-1-yl)-2-((tetrahydro-2/-pyran-4-yl)amino)benzamide], at TPM3-TRKA fusion protein (setting [1]), the percent degradation of TPM3-TRKA protein at 0.01 µM was above 80%. The half-inhibitory concentration (IC50) in the assay on KM12 cells worked out at 23 nM.

Consider `O=C1CCC(N2Cc3cc(N4CC(CN5CCN(c6ccc(C(=O)Nc7n[nH]c8ccc(Cc9cc(F)cc(F)c9)cc78)c(NC7CCOCC7)c6)CC5)C4)ccc3C2=O)C(=O)N1` (stereo not drawn) [TR-300, N—(S-(3,5-Difluorobenzyl)-1H-indazol-3-yl)-4-(4-((1˜ (2˜ (2,6-dioxopiperidin-3-yl)-1-oxoisoindolin-5-yl)azetidin-3-yl)methyl)piperazin-1-yl)-2-((tetrahydro-2H-pyran-4-yl)amino)benzamide], for which the percent degradation of TPM3-TRKA protein at 0.01 µM at TPM3-TRKA fusion protein (setting [1]) was in the range of 50 to 80%. The 50% inhibitory concentration (IC50) in the assay with KM12 cells amounted to 53 nM.

In the case of `CC(C1CN(c2ccc3c(c2)C(=O)N(C2CCC(=O)NC2=O)C3=O)C1)N1CCN(c2ccc(C(=O)Nc3n[nH]c4ccc(Cc5cc(F)cc(F)c5)cc34)c(NC3CCOCC3)c2)CC1` (stereo not drawn) [TR-301, N-(5-(3,5-difluorobenzyl)-1H-indazol-3-yl)-4-(4-(1-(1-(2-(2,6-dioxopiperidin-3-yl)-1,3-dioxoisoindolin-5-yl)azetidin-3-yl)ethyl)piperazin-1-yl)-2-((tetrahydro-2H-pyran-4-yl)amino)benzamide], on TPM3-TRKA fusion protein (setting [1]), the percent degradation of TPM3-TRKA protein at 0.01 µM is above 80%. For the same compound, the IC50 in the assay on KM12 cells was found to be 6 nM.

As to `O=C1CCC(N2Cc3cc(C4CN(C5CCN(c6cccc(-c7cnc8ccc(N9CCC[C@@H]9c9cccc(F)c9)nn78)n6)CC5)C4)ccc3C2=O)C(=O)N1` (stereo partly drawn) [TR-302, 3-(5-(1-(1-(6-(6-((R)-2-(3-fluorophenyl)pyrrolidin-1-yl)imidazo[1,2-b]pyridazin-3-yl)pyridin-2-yl)piperidin-4-yl)azetidin-3-yl)-1-oxoisoindolin-2-yl)piperidine-2,6-dione], at TPM3-TRKA fusion protein (KM12, 16 h), the percent degradation of TPM3-TRKA protein at 0.01 µM is above 80%. Moreover, in the assay with KM12 cells, the IC50 is 1.7 nM.

Consider `Cn1c(=O)n(C2CCC(=O)NC2=O)c2cccc(C#CCN3CCN(c4ccc(C(=O)Nc5n[nH]c6ccc(Cc7cc(F)cc(F)c7)cc56)c(NC5CCOCC5)c4)CC3)c21` (stereo not drawn) [TR-303, N-(5-(3,5˜Difluorobenzyl)-1H-indazol-3-yl)-4-(4-(3-(1-(2,6-dioxopiperidin-3-yl)-3-methyl-2-oxo-2,3˜dihydro-1/7-benzo[d]imidazol-4-yl)prop-2-yn-1-yl)piperazin-1-yl)-2-((tetrahydro-2/-pyran-4-yl)amino)benzamide], for which the percent degradation of TPM3-TRKA protein at 0.01 µM on TPM3-TRKA fusion protein (setting [1]) was above 80%. In the assay with KM12 cells, the IC50 was 8.4 nM.

Source of the values: patent US12410171B2, “Tropomyosin receptor kinase (TRK) degradation compounds and methods of use” (Cullgen (Shanghai), Inc., priority 2020, dated 2025).
